According to patent US4321260A, “Method of using gonadorelin for the treatment of benign prostatic hyperplasia” (Ayerst, McKenna & Harrison Inc., priority 1980, dated 1982):
“Also recorded” adds a separate entry of the source.

Tests used:
[1] = system: seminal vesicles; test: 3-week daily s.c. treatment of male rats, weight of the seminal vesicles; assay type: in vivo, Sprague-Dawley rats; settings: for weight of the seminal vesicles (wet weight): male rats
Protocol: (§1) Adult male Sprague-Dawley rats weighing 275-325 g upon arrival were obtained from Canadian Breeding Laboratories, St. Constant, Quebec, Canada. All animals were housed 2 per cage in an air-conditioned (21±1° C.; 45-50% humidity) and light (12 hours light, 12 hours darkness)-controlled room and given food and water ad libitum. […] Rats were killed by decapitation 24 hours after the last injection. The testes, seminal vesicles and ventral prostate were removed, chilled, weighed and kept frozen at -20° C. until use.

[2] = system: ventral prostate; test: 3-week daily s.c. treatment of male rats, weight of the ventral prostate; assay type: in vivo, Sprague-Dawley rats; settings: for weight of the ventral prostate (wet weight): male rats
Protocol: as §1

[3] = system: testes; settings: in vivo; cited from earlier work
[4] = 25μg s.c. daily, 1 week of treatment
[5] = 25μg s.c. daily, 2 weeks of treatment
[6] = 25μg s.c. daily, 3 weeks of treatment
[7] = 250μg s.c. daily, 1 week of treatment
[8] = 250μg s.c. daily, 2 weeks of treatment
[9] = 250μg s.c. daily, 3 weeks of treatment
[10] = 2500μg s.c. daily, 1 week of treatment
[11] = 2500μg s.c. daily, 2 weeks of treatment
[12] = 2500μg s.c. daily, 3 weeks of treatment
[13] = daily subcutaneous administration to male rats up to three weeks, listed as gonadorelin

CC(C)C[C@H](NC(=O)CNC(=O)[C@H](Cc1ccc(O)cc1)NC(=O)[C@H](CO)NC(=O)[C@H](Cc1c[nH]c2ccccc12)NC(=O)[C@H](Cc1cnc[nH]1)NC(=O)[C@@H]1CCC(=O)N1)C(=O)N[C@@H](CCCNC(=N)N)C(=O)N1CCC[C@H]1C(=O)NCC(N)=O [LH-RH, Pyr-His-Trp-Ser-Tyr-Gly-Leu-Arg-Pro-Gly-NH2]
weight of the seminal vesicles (wet weight) [1, 4]: 281 ± 14 mg
weight of the seminal vesicles (wet weight) [1, 5]: 247 ± 9 mg
weight of the seminal vesicles (wet weight) [1, 6]: 260 ± 13 mg
weight of the seminal vesicles (wet weight) [1, 7]: 298 ± 10 mg
weight of the seminal vesicles (wet weight) [1, 8]: 249 ± 18 mg
weight of the seminal vesicles (wet weight) [1, 9]: 210 ± 8 mg
weight of the seminal vesicles (wet weight) [1, 10]: 265 ± 10 mg
weight of the seminal vesicles (wet weight) [1, 11]: 236 ± 13 mg
weight of the seminal vesicles (wet weight) [1, 12]: 225 ± 9 mg
effect on the weight of seminal vesicles (in words) [1, 13]: significant decrease; also recorded: significantly decreases
weight of the ventral prostate (wet weight) [2, 4]: 359 ± 23 mg
weight of the ventral prostate (wet weight) [2, 5]: 415 ± 31 mg
weight of the ventral prostate (wet weight) [2, 6]: 378 ± 13 mg
weight of the ventral prostate (wet weight) [2, 7]: 360 ± 26 mg
weight of the ventral prostate (wet weight) [2, 8]: 380 ± 38 mg
weight of the ventral prostate (wet weight) [2, 9]: 370 ± 25 mg
weight of the ventral prostate (wet weight) [2, 10]: 325 ± 12 mg
weight of the ventral prostate (wet weight) [2, 11]: 355 ± 31 mg
weight of the ventral prostate (wet weight) [2, 12]: 373 ± 18 mg
effect on ventral prostate weight (in words) [2, 13]: significant decrease; also recorded: significantly decreases

[D-Ala^6, des-Gly-NH2^10 ]-LH-RH ethylamide
selective effect (decrease of seminal vesicle and ventral prostate weight while not affecting testicular weight) [3]: do not show such a selectivity

[D-Leu^6,des-Gly-NH2^10 ]-LH-RH ethylamide
selective effect (decrease of seminal vesicle and ventral prostate weight while not affecting testicular weight) [3]: do not show such a selectivity
